{"source": "paper PMC7395176", "about": "“Retromer stabilization results in neuroprotection in a model of Amyotrophic Lateral Sclerosis” (Nature Communications, 2020)", "key": {"[1]": {"tested_on": "SOD1^G93A aggregates", "experiment": "Treatment of G93A mice from day 83 to day 103: motor performance, SOD1 aggregates (blue-native PAGE)", "type": "in vivo", "settings": "10 mg/kg daily", "excerpt": "SOD1 mutations increase its propensity to aggregate in cells. We checked whether compound 2a could reduce the accumulation of SOD1^G93A aggregates in vivo. Starting at postnatal day 83, we injected G93A mice and WT littermates daily with compound 2a. We scored motor performances in vehicle- and compound 2a-treated G93A mice until day 103. […] We resolved SC protein extracts by blue-native polyacrylamide gel electrophoresis, and probing them with anti-SOD1 antibodies we observed high molecular weight smears in G93A mice that were absent in WT litters. The intensity of such high MW entities was lowered in G93A mice treated with compound 2a (Supplementary Fig. 13b, c).\nG93A mice and their WT litters were injected daily with vehicle or compound 2a (10 mg/kg, from day 83 to day 103). […] We incubated 250 µL of each extract with 100 mM Iodoacetamide (Sigma–Aldrich). […]\nn=4 independent mice/group, data are collected from 1 experiment). […] Dividing black linesmark lanes cropped from the same filter;c, quantifications of the mutant forms of the SOD1 from mice treated with sham or with compound 2a (G93A-v: n=6 independent mice, G93A-2a: n=6 independent mice, data are derived from 2 independent experiments). […]"}, "[2]": {"tested_on": "Cathepsin D (CTSD)", "experiment": "Cathepsin D (CTSD) levels in treated G93A mice", "type": "in vivo", "settings": "10 mg/kg, day 100", "excerpt": "We next investigated Cathepsin D (CTSD) expression and distribution in G93A mice, since its trafficking involves the retromer complex. In humans, CTSD maturation starts with a pre-pro-CTSD then converted to pro-CTSD (52 kDa) in the endoplasmic reticulum. Recycling of pro-CTSD and its downstream migration to acidic compartments involves CI-MPR and the retromer pathway. Pro-CTSD is further processed to an intermediate form in late endosomes (48 kDa), and finally converted to mature CTSD (34 kDa) in lysosomes. VPS35 inactivation[48] or VPS26 knockdown[21] affect CTSD maturation. We scored CTSD levels in lumbar SC extracts from vehicle-treated WT and vehicle- or 2a-treated G93A mice. […] We next analyzed CTSD levels and CTSD^+ puncta in MNs by confocal microscopy, observing their significant reduction in MNs of vehicle-treated G93A mice that was restored by treatment with compound 2a (Fig. 6f).\nFluorescence intensity levels of VPS35, VPS26, CI-MPR, Sortilin, CTSD and Ubiquitin were calculated using NHI-Image J software (US National Institutes of Health) according to the following protocol: stacks of confocal images were used to generate the maximal projections using the Leica Application Suite X (2.0.0.14332) software and then postprocessed by NHI-Image J to crop single NeuN^+ MNs from the ventral horn of the spinal cord. […] On this ROI, we measured mean fluoresce levels (MFI) of target proteins."}, "[3]": {"target": "VPS35 (Mus musculus, UniProt Q9EQH3+Q9QZ88)", "settings": "Neuro2a cells, 10 µM, 48 h, WB", "description": "Protein extracts were collected, separated by SDS-PAGE and immunoblotted for VPS35 and the housekeeping gene β-Actin.\nNeuro2a cells (ATCC® CCL-131™) were seeded in Dulbecco’s modified Eagle’s media (DMEM, Gibco) supplemented with FBS 10% (Gibco), L-glutamine (Gibco) 2 mM and penicillin/streptomycin 1% (Gibco). Depending on the experimental setting, we used 6-well, 12-well or 96-well dishes. Neuro2a were grow at 37 °C in a humidified 5% CO2 atmosphere. All experiments were carried out at least in triplicate. Compounds and transfections were done on cells showing 60–70% of confluence. Compounds were usually kept on cells for 48 h; Bortezomib (BTZ) was used at 10 nM for 6 h to inhibit proteasome.\nProtein lysates from cells cultures were collected from plates receiving PBS 1× washing and subsequently the lysis buffer followed by sonication. Protein concentrations were measured by BCA protein assay kit (Thermofisher) according to the manufacturer’s recommendations. Ten µg of protein extract was loaded on 10% Mini-PROTEAN TGX Stain-Free precast gels for PAGE (Bio-Rad). Gel electrophoresis was performed at 100 V for 2 h. Gels were transferred on Immobilon®-P PVDF membrane according to the manufacturer’s instructions (Millipore). Blots were blocked in 5% BSA in Tris buffered saline plus 0.1% Tween-20 (TBS-T) for 1 h before receiving primary antibodies: goat α-VPS35 1:800 (ab10099, Abcam); rabbit α-VPS26 1:1000 (ab23892 Abcam), rabbit α-VPS26b 1:1000 (15915-1-AP, ProteinTech); rabbit α-VPS29 1:1000 (ab236796 Abcam); mouse α-βActin 1:25000 (Sigma–Aldrich); mouse α-Golgin97 1:1000 (Invitrogen); mouse α-Ubiquitin 1:500 (Merk); rabbit α-CD14 1:1000 (Bioss Inc); mouse α-Tubulin 1:5000 (Immunological Sciences MAB-80143) overnight at 4 °C on shaker. Following several washes with TBS-T, blots were incubated in appropriate HRP-labeled secondary antibodies (Bio-Rad) for 1 h at room temperature. Visualization of protein bands was obtained using ClarityMax-ECL (Bio-Rad) according to the manufacturer’s instructions and images were acquired on ChemiDoc (Bio-Rad). Quantifications were done using the Image Lab 6.0.1 software (Bio-Rad)."}, "[4]": {"tested_on": "Vps35, Vps26, and Vps29 mRNAs", "experiment": "Real-time PCR of CRC genes in Neuro2a cells", "type": "cell-based", "settings": "10 μM, 48 h", "excerpt": "Lumbar spinal tracts dissected from saline-perfused mice or Neuro2A cells were lysed to extract total RNAs using the RNeasy Mini Kit (Qiagen) according to the manufacturer’s recommendations, including DNase (Promega) digestion. We synthetized the cDNA using ThermoScript RT-PCR System (Invitrogen) and Random Hexamer (Invitrogen), according to the manufacturer’s instructions. The LightCycler 480 System (Roche) and LightCycler 480 SYBR Green I Master Mix (Roche) were used for real-time PCR experiments. Normalization was obtained using the housekeeping gene Histone H3:\nCompound 2a stabilizes VPS35 levels in Neuro2a cells\nA cycloheximide (CHX) chase assay was performed to determine the degradation rate of VPS35 in Neuro2a cells (3x10^5 cells/well). Cells were treated with vehicle or 2a (10 µM) for 24 h, and then chased with CHX (10 µg/mL) for 2, 4 and 8h.\nWBs for VPS35 and β-Actin levels. Quantifications of normalized VPS35 levels (means normalized ratios ± SEM versus the time 0) are shown inpanel b (vehicle: n=10 independent wells, 2a: n=8 independent wells obtained from 3 independent experiments; control vs. 2a at 8 hours: p=0.009). c, quantitative real time PCR for Vps35, Vps26 and Vps29 mRNA (Vps35: controls n=8 independent wells; 2a: n=9 independent wells; Vps26 and Vps29: n=9 independent wells/group); data were collected from 3 independent experiments. […]"}}}
{"smiles": "NC(N)=N/N=C/c1cccc(/C=N/N=C(N)N)c1", "note": "[compound 2a, phenyl-1,3-bis-guanylhydrazone]", "values": [{"measurement": "motor deficits (latency to fall)", "setting": "[1]", "value": "general attenuation of motor deficits"}, {"measurement": "intensity of high MW SOD1 entities (blue-native PAGE)", "setting": "[1]; SC extracts", "value": "lowered"}, {"measurement": "CTSD levels and CTSD+ puncta in MNs (confocal)", "setting": "[2]", "value": "restored"}, {"measurement": "levels of mature CTSD (WB, lumbar SC extracts)", "setting": "[2]", "value": "significantly increased"}, {"measurement": "VPS35 levels", "setting": "[3]", "value": "increased VPS35 levels"}, {"measurement": "transcription levels of CRC genes (Vps35, Vps26, Vps29 mRNAs)", "setting": "[4]", "value": "did not influence"}]}
